Results on one compound are retold here after US20090082400A1, “SOLUBLE PYRONE ANALOGS METHODS AND COMPOSITIONS” (priority 2007, published 2009).

This series in a line: Pharmacokinetic parameters of oral tacrolimus in the presence of Q-Captisol in healthy human volunteers. The series is classed as in vivo. The method, then:
Tacrolimus-quercetin pharmacokinetic interactions are evaluated in N=15 healthy male subjects in an open-label, three-way crossover study of i.v. or oral quercetin-sulfobutylether-7-β-cyclodextrin (Q-Captisol) administered in combination with oral tacrolimus. Q-Captisol stock dosing solutions are prepared in aqueous Captisol (CyDex Inc.) using sodium hydroxide to facilitate dissolution. The final solution is adjusted to a final pH=7.5 to 8.0 using dilute sodium hydroxide or HCl. Stock solutions are aseptically filtered into a sterile IV bag and diluted to final volume with sterile saline. Q-Captisol oral dosing solutions are prepared by transferring the stock solution to a dosing cup and diluting to the final volume with deionized water. Oral tacrolimus is administered using commercially-available Prograf® capsules, with each capsule containing 1 mg tacrolimus and the excipient lactose.
In Period 1, all subjects received only a single dose of oral tacrolimus (1 mg).
In Period 2, all subjects received 3× daily oral doses of Q-Captisol on Days 12, 13, and 14. On Day 14, subjects received a single dose of oral tacrolimus (1 mg)
In Period 3, i.v. infusions of Q-Captisol are administered over 20 min via an indwelling cannula. Tacrolimus (1 mg) is administered orally 60 min after the start of the administration of the i.v. Q-Captisol dose.
The dosing regimen is as follows:
Period 1: Day 1: single oral dose of 1 mg tacrolimus
Period 2: Day 12: three times per day (Q 8 hrs) single oral dose of 100 mg Q-Captisol
Day 13: three times per day (Q 8 hrs) single oral dose of 100 mg Q-Captisol
Day 14: three times per day (Q 8 hrs) single oral dose of 100 mg Q-Captisol, with a single oral dose of 1 mg tacrolimus following the first dose of Q-Captisol.
Period 3: Day 25: single IV infusion of 100 mg Q-Captisol followed by a single oral dose of 1 mg tacrolimus.
In Period 1, blood samples for determination of tacrolimus pharmacokinetics are obtained at 0 min (pre-dose), then at 0.25, 0.5, 1, 2, 4, 8, 12, 24, 48, and 72 hr. Similar time periods are used to obtain tacrolimus blood sampled in Periods 2 and 3. Blood samples (0.4 ml) are withdrawn into K2-EDTA tubes from either an indwelling cannula or via venipuncture, then processed to yield plasma. Plasma samples are transferred to fresh tubes and frozen prior to shipment to the analytical laboratory.
The tacrolimus concentrations in plasma are determined using validated assay methods via an LC/MS/MS analytical technique. Major pharmacokinetic parameters, including area under the concentration versus time curve from time zero to the time of last measurable concentration (AUCt), area under the concentration versus time curve from time zero to infinite time (AUCinf), maximum observed concentration (Cmax), time to reach maximum observed blood or plasma concentration (Tmax), apparent terminal elimination rate constant (Kcl), clearance (CL), and half-life (T1/2), are determined from the plasma concentration data. Samples are analysed from all 15 subjects; one subject is a clear outlier and is excluded from the final analysis (N=14 subjects per dose regimen).

The mark [1] stands for this setting: Period 1: single oral dose 1 mg tacrolimus alone.
[2] abbreviates: Period 2: 1 mg oral tacrolimus + Q-Captisol po 100 mg three times per day Days 12-14.
The mark [3] stands for this setting: male, plasma, Period 1: single oral dose 1 mg tacrolimus alone.
The mark [4] stands for this setting: male, plasma, Period 2: 1 mg oral tacrolimus + Q-Captisol po 100 mg three times per day Days 12-14.
The mark [5] stands for this setting: male, plasma, Period 3: 1 mg oral tacrolimus after single IV infusion of 100 mg Q-Captisol.

Read-outs that look alike come from different tables or passages of the source.

For the compound `C=CC[C@@H]1/C=C(\C)C[C@H](C)C[C@H](OC)[C@H]2O[C@@](O)(C(=O)C(=O)N3CCCC[C@H]3C(=O)O[C@H](/C(C)=C/[C@@H]3CC[C@@H](O)[C@H](OC)C3)[C@H](C)[C@@H](O)CC1=O)[C@H](C)C[C@@H]2OC` [tacrolimus], under setting [1], the CL came to 4.75 mL/min/kg and the Vd worked out at 8.5 L/kg. Also, under setting [2], the CL worked out at 3.53 mL/min/kg and the Vd stood at 8.4 L/kg. Besides, under setting [3], the AUC came out at 48.8 ng·h/mL, the Cmax turned out to be 5.8 ng/mL, the time to peak (Tmax) worked out at 1.56 h and the half-life was 20.8 h. In addition, under setting [4], the AUC amounted to 65.7 ng·h/mL, the highest concentration (Cmax) was found to be 6.5 ng/mL, the Tmax was 1.28 h and the half-life is 27.7 h. Under setting [5], the exposure (AUC) worked out at 56.3 ng·h/mL, the highest concentration (Cmax) was 6.4 ng/mL, the time to peak (Tmax) was determined as 1.55 h and the clearance is 4.08 mL/min/kg. Moreover, the half-life under setting [5] is 19.9 h. Also, the Vd (male, plasma, Period 3: 1 mg oral tacrolimus after single IV infusion of 100 mg Q-Captisol, read-out: Vd) is 7.1 L/kg.

In general, AUC refers to the area under the concentration-time curve, a measure of exposure. Broadly, the Cmax is the peak of the concentration-time curve. Broadly, the Tmax is the time at which the peak concentration occurs. What is called half-life is how long it takes for the measured level to halve.
